Each molecule was assayed against T1, androgen receptor (Homo sapiens, UniProt P10275) (assay: AR Antagonist Cell Assay (MMTV-luciferase reporter, DHT-induced)). Settings: MDA-MB453-MMTV clone 54-19 cells, 100 pM DHT, 17 hr.
T1 sequence (P10275 1-920 Q868H): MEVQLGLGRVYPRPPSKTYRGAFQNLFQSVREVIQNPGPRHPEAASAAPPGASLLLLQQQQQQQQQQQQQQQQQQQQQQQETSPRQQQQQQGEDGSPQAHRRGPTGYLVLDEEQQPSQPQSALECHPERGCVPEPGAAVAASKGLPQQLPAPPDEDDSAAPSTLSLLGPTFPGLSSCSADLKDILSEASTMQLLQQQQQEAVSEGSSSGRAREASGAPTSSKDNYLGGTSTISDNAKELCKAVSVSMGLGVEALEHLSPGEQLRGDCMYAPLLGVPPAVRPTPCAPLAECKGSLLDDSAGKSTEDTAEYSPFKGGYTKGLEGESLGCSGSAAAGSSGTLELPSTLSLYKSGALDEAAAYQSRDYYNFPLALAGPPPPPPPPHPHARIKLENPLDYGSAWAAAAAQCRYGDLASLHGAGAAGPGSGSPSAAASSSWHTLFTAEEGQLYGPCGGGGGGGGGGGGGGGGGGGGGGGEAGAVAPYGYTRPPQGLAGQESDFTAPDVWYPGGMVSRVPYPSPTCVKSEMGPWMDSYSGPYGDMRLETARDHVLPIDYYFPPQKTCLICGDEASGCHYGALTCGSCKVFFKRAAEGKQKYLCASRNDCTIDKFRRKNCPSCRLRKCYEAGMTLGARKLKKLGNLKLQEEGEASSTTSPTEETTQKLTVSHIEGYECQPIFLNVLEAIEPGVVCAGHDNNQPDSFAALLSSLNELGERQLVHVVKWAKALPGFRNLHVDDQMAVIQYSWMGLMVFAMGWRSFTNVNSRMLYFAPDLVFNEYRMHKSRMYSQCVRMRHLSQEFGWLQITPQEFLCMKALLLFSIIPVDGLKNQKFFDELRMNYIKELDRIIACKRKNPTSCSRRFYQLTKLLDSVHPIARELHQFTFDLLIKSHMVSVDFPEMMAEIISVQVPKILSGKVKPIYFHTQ
Assay type: cell-based
Experimental: The compounds ability to antagonize the effects of androgen on the androgen receptor were determined in the protocol described immediately below.
Experimental Procedure for AR Antagonist Cell Assay
Cell line: MDA-MB453-MMTV clone 54-19. This cell line is a stable transfected cell line with MDA-MB453 cell background (human breast tumor cell expressing high level of androgen receptor). A MMTV minimal promoter containing ARE was first cloned in front of a firefly luciferase reporter gene. Then the cascade was cloned into transfection vector pUV120puro. Electroporation method was used for transfecting MDA-MB-453 cell. Puromycin resistant stable cell line was selected.
Cell Culture Media and Reagents:
Culture medium: DMEM (high glucose, Gibco cat #: 11960-044), 10% FBS, and 1% L-glutamine
Plating medium: DMEM (phenol red free), 10% charcoal treated HyClone serum, 1% L-glutamine
Assay medium: DMEM (phenol red free), 1% charcoal treated HyClone serum, 1% L-glutamine, and 1% penicillin/streptomycin
3× luciferase buffer: 2% beta-mercaptoethanol, 0.6% ATP, 0.0135% luciferine in cell lysis buffer
• 1. Cells are maintained in culture medium, splitting cells when they reach 80–90% confluence • 2. To test compounds, 10,000 cells/well are plated to opaque 96 cell culture plate in 100 ul/well plating medium, culture for overnight at 37° C. in cell culture incubator • 3. Carefully remove plating medium, then add 80 ul/well of pre-warmed assay medium, add 10 ul/well testing compound (final concentration at 10 uM or 1 uM), incubate at 37° C. for 30 minutes • 4. Add 10 ul/well freshly prepared DHT (final concentration at 100 pM) to each well, incubate at 37° C. for 17 hr (overnight) • 5. Add 50 ul/well 3× luciferase buffer, incubate at room temperature for 5 minutes, then count on Luminometer The fold induction over background by 100 pM DHT in the absence of testing compounds is standardized as 100% and experimental result is expressed as percentage of inhibition by testing compounds. TABLE3

| IC50 [nM] | SMILES |
| --- | --- |
| 8130 | O=c1cc(C(F)(F)F)c2cc(S(=O)(=O)Nc3ccccc3Sc3ccccc3)ccc2[nH]1 [Example 115, 2-Oxo-4-trifluoromethyl-1,2-dihydroquinoline-6-sulfonic acid(2-phenylsulfanylphenyl)amide] |
| 2720 | COc1cc(NS(=O)(=O)c2ccc3c(c2)c(C(F)(F)F)cc(=O)n3C)cc(OC)c1 [Example 36, 1-Methyl-2-oxo-4-trifluoromethyl-1,2-dihydroquinoline-6-sulfonicacid (3,5-dimethoxyphenyl)-amide] |
| 6100 | CC(C)Oc1cccc(NS(=O)(=O)c2ccc3c(c2)c(C(F)(F)F)cc(=O)n3C)c1 [Example 37, 1-Methyl-2-oxo-4-trifluoromethyl-1,2-dihydroquinoline-6-sulfonicacid (3-isopropoxyphenyl)-amide] |
| 360 | CCc1ccc(NS(=O)(=O)c2ccc3[nH]c(=O)cc(C(F)(F)F)c3c2)cc1 [Example 89, 2-Oxo-4-trifluoromethyl-1,2-dihydroquinoline-6-sulfonic acid(4-ethylphenyl)amide] |
| 1320 | Cn1c(=O)cc(C(F)(F)F)c2cc(S(=O)(=O)Nc3ccc(Cl)cc3)ccc21 [Example 31, 1-Methyl-2-oxo-4-trifluoromethyl-1,2-dihydroquinoline-6-sulfonicacid (4-chlorophenyl)amide] |
| > 10000 | COc1cc(CNS(=O)(=O)c2ccc3[nH]c(=O)cc(C(F)(F)F)c3c2)cc(OC)c1 [Example 149, 2-Oxo-4-trifluoromethyl-1,2-dihydroquinoline-6-sulfonic acid3,5-dimethoxybenzylamide] |
| 200 | COc1cc(NS(=O)(=O)c2ccc3[nH]c(=O)cc(C(F)(F)F)c3c2)cc(OC)c1 [Example 103, 2-Oxo-4-trifluoromethyl-1,2-dihydroquinoline-6-sulfonic acid(3,5-dimethoxyphenyl)amide] |
| > 10000 | COc1ccccc1NS(=O)(=O)c1ccc2c(c1)c(C(F)(F)F)cc(=O)n2C [Example 20, 1-Methyl-2-oxo-4-trifluoromethyl-1,2-dihydroquinoline-6-sulfonicacid (2-methoxyphenyl)amide] |
| 6330 | Cn1c(=O)cc(C(F)(F)F)c2cc(S(=O)(=O)NCCc3c[nH]c4ccccc34)ccc21 [Example 60, 1-Methyl-2-oxo-4-trifluoromethyl-1,2-dihydroquinoline-6-sulfonicacid [2-(1H-indol-3-yl)ethyl]amide] |
| 1030 | O=c1cc(C(F)(F)F)c2cc(S(=O)(=O)NC3CCc4ccccc43)ccc2[nH]1 (stereo not shown) [Example 130, 2-Oxo-4-trifluoromethyl-1,2-dihydroquinoline-6-sulfonic acidindan-1-ylamide] |
| > 10000 | O=c1cc(C(F)(F)F)c2cc(S(=O)(=O)NCc3ccc(F)cc3)ccc2[nH]1 [Example 129, 2-Oxo-4-trifluoromethyl-1,2-dihydroquinoline-6-sulfonic acid4-fluorobenzylamide] |
| 2980 | O=c1cc(C(F)(F)F)c2cc(S(=O)(=O)NCc3c(F)cccc3F)ccc2[nH]1 [Example 139, 2-Oxo-4-trifluoromethyl-1,2-dihydroquinoline-6-sulfonic acid2,6-difluorobenzylamide] |
| 1830 | CC(C)(Cc1ccc(F)cc1)NS(=O)(=O)c1ccc2[nH]c(=O)cc(C(F)(F)F)c2c1 [Example 150, 2-Oxo-4-trifluoromethyl-1,2-dihydroquinoline-6-sulfonic acid[2-(4-fluorophenyl)-1,1-dimethylethyl]amide] |
| 450 | C#Cc1ccc(NS(=O)(=O)c2ccc3[nH]c(=O)cc(C(F)(F)F)c3c2)cc1 [Example 86, 2-Oxo-4-trifluoromethyl-1,2-dihydroquinoline-6-sulfonic acid(4-ethynylphenyl)amide] |
| 1030 | CC(C)(C)CCNS(=O)(=O)c1ccc2[nH]c(=O)cc(C(F)(F)F)c2c1 [Example 122, 2-Oxo-4-trifluoromethyl-1,2-dihydroquinoline-6-sulfonic acid(3,3-dimethylbutyl)amide] |
| 1840 | Cn1c(=O)cc(C(F)(F)F)c2cc(S(=O)(=O)NCCC3=CCCCC3)ccc21 [Example 53, 1-Methyl-2-oxo-4-trifluoromethyl-1,2-dihydroquinoline-6-sulfonicacid (2-cyclohex-1-enylethyl)amide] |
| > 10000 | Cc1cccc(C)c1NS(=O)(=O)c1ccc2[nH]c(=O)cc(C(F)(F)F)c2c1 [Example 90, 2-Oxo-4-trifluoromethyl-1,2-dihydroquinoline-6-sulfonic acid(2,6-dimethylphenyl)amide] |
| 7080 | O=c1cc(C(F)(F)F)c2cc(S(=O)(=O)Nc3ccc(F)cc3)ccc2[nH]1 [Example 84, 2-Oxo-4-trifluoromethyl-1,2-dihydroquinoline-6-sulfonic acid(4-fluorophenyl)amide] |
| 5720 | CN(C1CCCCC1)S(=O)(=O)c1ccc2[nH]c(=O)cc(C(F)(F)F)c2c1 [Example 75, 2-Oxo-4-trifluoromethyl-1,2-dihydroquinoline-6-sulfonic acidcyclohexylmethylamide] |
| > 10000 | Cc1ccc(CNS(=O)(=O)c2ccc3c(c2)c(C(F)(F)F)cc(=O)n3C)cc1 [Example 51, 1-Methyl-2-oxo-4-trifluoromethyl-1,2-dihydroquinoline-6-sulfonicacid 4-methylbenzylamide] |
| > 10000 | O=c1cc(C(F)(F)F)c2cc(S(=O)(=O)NCCc3c[nH]c4ccccc34)ccc2o1 [Example 67, 2-Oxo-4-trifluoromethyl-2H-chromene-6-sulfonic acid [2-(1H-indol-3-yl)ethyl]amide] |
| 1940 | O=c1cc(C(F)(F)F)c2cc(S(=O)(=O)NCc3ccccc3Sc3ccccc3CO)ccc2[nH]1 [Example 155, 2-Oxo-4-trifluoromethyl-1,2-dihydroquinoline-6-sulfonic acid2-(2-hydroxymethyl-phenylsulfanyl)benzylamide] |
| > 10000 | O=c1cc(C(F)(F)F)c2cc(S(=O)(=O)NCc3cccnc3)ccc2o1 [Example 64, 2-Oxo-4-trifluoromethyl-2H-chromene-6-sulfonic acid(pyridin-3-ylmethyl)amide] |
| 2960 | Cn1c(=O)cc(C(F)(F)F)c2cc(S(=O)(=O)Nc3ccc(-n4ccc(C(F)(F)F)n4)cc3)ccc21 [Example 47, 1-Methyl-2-oxo-4-trifluoromethyl-1,2-dihydroquinoline-6-sulfonicacid [4-(3-trifluoromethylpyrazol-1-yl)phenyl]amide] |
| 840 | N#CCc1ccc(NS(=O)(=O)c2ccc3[nH]c(=O)cc(C(F)(F)F)c3c2)cc1 [Example 95, 2-Oxo-4-trifluoromethyl-1,2-dihydroquinoline-6-sulfonic acid(4-cyanomethylphenyl)amide] |
| 930 | Cn1c(=O)cc(C(F)(F)F)c2cc(S(=O)(=O)Nc3cccc(C(F)(F)F)c3)ccc21 [Example 39, 1-Methyl-2-oxo-4-trifluoromethyl-1,2-dihydroquinoline-6-sulfonicacid (3-trifluoromethylphenyl)-amide] |
| > 10000 | Cn1c(=O)cc(C(F)(F)F)c2cc(S(=O)(=O)Nc3cccc4c3CCC4)ccc21 [Example 23, 1-Methyl-2-oxo-4-trifluoromethyl-1,2-dihydroquinoline-6-sulfonicacid indan-4-ylamide] |

| SMILES | IC50 [nM] |
| --- | --- |
| O=c1cc(C(F)(F)F)c2cc(S(=O)(=O)NCCc3c[nH]c4ccccc34)ccc2[nH]1 [Example 147, 2-Oxo-4-trifluoromethyl-1,2-dihydroquinoline-6-sulfonic acid[2-(1H-indol-3-yl)ethyl]amide] | 260 |
